Data: US11628198B2, “Methods for prevention and treatment of acute renal injury” (Cornell University, priority 2008, dated 2023)

Columns and labels:
[1] = system: CCl4 induced chronic nephrotoxicity; assay: CCl4 chronic kidney injury model: renal histology; type: in vivo, rat; settings: 10 mg/kg s.c. 5 days a week for 7 wks
From the text: Study design and experimental protocol: In this model, SD rats with body weight of 250 g were fed with 0.35 g/L phenobarbital solution (Luminal water) for two weeks, then divided into three groups and treated as follows.
At the end of fifth week, four rats from each group were sacrificed for liver histopathological sectioning and fibrosis examination. In the end of 7th week, all remaining rats in each group were sacrificed, and kidney and liver tissues were harvest for histopathological sectioning and examination.
Renal Histology: Kidneys were fixed in 10% neutral-buffered formalin and embedded in paraffin wax. Three micron sections were stained with hematoxylin-eosin (H&E) and analyzed by light microscopy by a certified pathologist.

[2] = system: contrast induced nephropathy in diabetic animal model; assay: CIN in diabetic (HFD/STZ) rats with iohexol, Experiment 2; type: in vivo, rat
Description: In this experiment, 30 SD rats were fed with high fat diet for 6 weeks, followed by the injection with low dose streptozotocin (30 mg/kg). After 9 more weeks, the rats were used in the contrast induced nephropathy study. The animals were divided into 2 groups with the doses, dosing schedules and study protocol as follows. On day 0, the weight of the animals was determined and glucose and serum samples were collected. On day 1, Scr was assayed and spot urine collection performed. On days 2 and 3, 3 mg/kg SS-31 (Group 1) or a vehicle (Group 2) was administered s.c. 30 min prior to the dye injection (6 mL/kg i.v. tail vein). SS-31 (Group 1) or PBS (Group 2) administration was repeated at 2 h, 1 day, 2, days, 3 days, 4 days, and 5 day post-dye administration. On day 8, serum and urine samples were collected and the rats were euthaniszed to harvest kidneys and vital organs.
Renal function: Renal function was assessed by determining serum and urinary creatinine using Jiancheng Cr kit (Nanjing, P.R.C) at baseline, 24 h, 3 day and 6 days following contrast dye (Iohexol) administration. The creatinine clearance was calculated based on the Scr, Ucr and Urinary volume. Samples were analyzed by students t-test and differences were considered significant at p<0.05.

## D-Arg-2′6′Dmt-Lys-Phe-NH2 [SS-31]
[1]
  renal histology (H&E): no observable histopathological change
[2]; Baseline
  GFR: 159.2±25.1 μl/min/100 g
  Scr: 214.6 ± 15.4 µmol/L
  U protein: 5.4 ± 1.1 mg/4 h
  U vol: 18.1 ± 4.4 mL
  Ucr: 4182.5 ± 699.8 µmol/L
[2]; T1 (24 h post dye)
  GFR: 159.9±9 μl/min/100 g
  Scr: 168.6 ± 21.9 µmol/L
  U protein: 3.6 ± 0.8 mg/4 h
  U vol: 15.2 ± 4.3 mL
  Ucr: 4488.9 ± 861.6 µmol/L
[2]; T2 (3 day post dye)
  GFR: 100.9 ± 16.7 μl/min/100 g
  Scr: 236.2 ± 26.6 µmol/L
  U protein: 4.3 ± 0.9 mg/4 h
  U vol: 12.8 ± 3.6 mL
  Ucr: 4744.8 ± 1350.6 µmol/L
[2]; T3 (6 days post dye)
  GFR: 121.5 ± 9.1 μl/min/100 g
  Scr: 175.3 ± 25.9 µmol/L
  U protein: 2.4 ± 0.4 mg/4 h
  U vol: 9.6 ± 2.3 mL
  Ucr: 4030.7 ± 620 µmol/L
